The results in this text go back to ChEMBL document CHEMBL5291721, “A preclinical secondary pharmacology resource illuminates target-adverse drug reaction associations of marketed drugs” (Nat Commun, 2023).

The AC50 is the midpoint of the concentration-response curve, whichever way the signal moves.

Assay [1] has as its target T1, Cholecystokinin receptor type A (Homo sapiens, UniProt P32238).
T1 sequence (P32238 whole entry): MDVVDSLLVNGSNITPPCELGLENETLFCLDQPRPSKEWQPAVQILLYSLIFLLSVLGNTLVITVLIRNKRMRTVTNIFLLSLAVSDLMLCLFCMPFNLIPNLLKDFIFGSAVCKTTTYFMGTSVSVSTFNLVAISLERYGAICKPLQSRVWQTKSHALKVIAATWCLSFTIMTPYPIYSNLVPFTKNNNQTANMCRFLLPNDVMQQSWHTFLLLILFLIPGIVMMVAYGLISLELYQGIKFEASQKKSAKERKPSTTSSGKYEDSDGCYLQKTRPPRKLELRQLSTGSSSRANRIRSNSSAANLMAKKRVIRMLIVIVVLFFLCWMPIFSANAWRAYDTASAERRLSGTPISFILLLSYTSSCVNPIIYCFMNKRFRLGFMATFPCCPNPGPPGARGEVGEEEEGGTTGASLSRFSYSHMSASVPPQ

For assay [2], the target named is T2, 5-hydroxytryptamine receptor 2C (Homo sapiens, UniProt P28335).
T2 sequence (P28335 whole entry): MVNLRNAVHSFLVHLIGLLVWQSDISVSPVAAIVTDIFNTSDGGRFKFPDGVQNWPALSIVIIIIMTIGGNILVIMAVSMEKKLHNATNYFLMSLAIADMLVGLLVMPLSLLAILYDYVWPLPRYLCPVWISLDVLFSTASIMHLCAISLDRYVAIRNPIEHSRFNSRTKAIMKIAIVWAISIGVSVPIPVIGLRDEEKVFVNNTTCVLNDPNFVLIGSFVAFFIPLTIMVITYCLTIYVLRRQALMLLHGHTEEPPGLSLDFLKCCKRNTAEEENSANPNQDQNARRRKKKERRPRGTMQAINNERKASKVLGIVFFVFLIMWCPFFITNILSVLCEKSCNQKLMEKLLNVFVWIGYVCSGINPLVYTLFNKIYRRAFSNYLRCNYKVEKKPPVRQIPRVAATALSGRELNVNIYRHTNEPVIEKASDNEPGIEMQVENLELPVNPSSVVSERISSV

Assay [3] has as its target Kappa-type opioid receptor (Homo sapiens, UniProt P41145).
The target in a further assay is Histamine H1 receptor (Homo sapiens, UniProt P35367).
In assay [4] the target is T3, Amine oxidase [flavin-containing] A (Homo sapiens, UniProt P21397).
T3 sequence (P21397 whole entry): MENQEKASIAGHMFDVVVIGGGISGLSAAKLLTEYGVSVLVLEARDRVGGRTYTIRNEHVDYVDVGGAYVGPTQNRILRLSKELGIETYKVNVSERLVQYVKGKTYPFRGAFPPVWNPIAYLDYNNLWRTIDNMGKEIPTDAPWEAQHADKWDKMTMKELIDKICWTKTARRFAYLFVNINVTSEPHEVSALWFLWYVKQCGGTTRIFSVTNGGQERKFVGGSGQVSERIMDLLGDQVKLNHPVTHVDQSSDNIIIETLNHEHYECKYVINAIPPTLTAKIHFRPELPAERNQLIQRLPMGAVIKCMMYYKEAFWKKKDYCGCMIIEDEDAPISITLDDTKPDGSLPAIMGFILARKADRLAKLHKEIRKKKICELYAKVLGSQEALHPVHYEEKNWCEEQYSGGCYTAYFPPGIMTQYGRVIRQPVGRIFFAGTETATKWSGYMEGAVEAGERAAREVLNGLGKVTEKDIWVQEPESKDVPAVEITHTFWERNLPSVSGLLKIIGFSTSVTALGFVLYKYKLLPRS
In kind it is functional.

The target of the next assay is T4, Adenosine receptor A1 (Homo sapiens, UniProt P30542).
T4 sequence (P30542 whole entry): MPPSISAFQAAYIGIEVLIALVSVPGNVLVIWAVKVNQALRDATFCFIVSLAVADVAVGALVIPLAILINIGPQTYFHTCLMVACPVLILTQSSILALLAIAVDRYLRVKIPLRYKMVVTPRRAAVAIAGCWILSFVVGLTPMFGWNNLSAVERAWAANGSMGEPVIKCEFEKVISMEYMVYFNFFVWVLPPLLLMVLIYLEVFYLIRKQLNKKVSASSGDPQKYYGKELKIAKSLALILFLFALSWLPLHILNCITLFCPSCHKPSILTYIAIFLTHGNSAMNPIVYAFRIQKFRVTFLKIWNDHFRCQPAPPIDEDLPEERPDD

For another assay, the target named is T5, Adenosine receptor A3 (Homo sapiens, UniProt P0DMS8).
T5 sequence (P0DMS8 whole entry): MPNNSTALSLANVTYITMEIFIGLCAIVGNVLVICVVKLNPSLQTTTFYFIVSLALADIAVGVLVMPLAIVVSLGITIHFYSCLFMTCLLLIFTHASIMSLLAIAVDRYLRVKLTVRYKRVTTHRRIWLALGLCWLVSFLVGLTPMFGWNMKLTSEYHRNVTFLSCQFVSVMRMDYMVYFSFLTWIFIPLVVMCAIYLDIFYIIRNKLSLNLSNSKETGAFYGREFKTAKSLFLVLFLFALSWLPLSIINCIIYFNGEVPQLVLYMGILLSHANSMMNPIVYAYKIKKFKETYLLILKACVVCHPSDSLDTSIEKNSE

The target of assay [5] is Sodium-dependent serotonin transporter (Homo sapiens, UniProt P31645).
Assay [6] addresses 5-hydroxytryptamine receptor 2A (Homo sapiens, UniProt P28223). The assay is classed as functional, cell-based.
Also: assay procedure not described here.

Sequence of Kappa-type opioid receptor (P41145 whole entry): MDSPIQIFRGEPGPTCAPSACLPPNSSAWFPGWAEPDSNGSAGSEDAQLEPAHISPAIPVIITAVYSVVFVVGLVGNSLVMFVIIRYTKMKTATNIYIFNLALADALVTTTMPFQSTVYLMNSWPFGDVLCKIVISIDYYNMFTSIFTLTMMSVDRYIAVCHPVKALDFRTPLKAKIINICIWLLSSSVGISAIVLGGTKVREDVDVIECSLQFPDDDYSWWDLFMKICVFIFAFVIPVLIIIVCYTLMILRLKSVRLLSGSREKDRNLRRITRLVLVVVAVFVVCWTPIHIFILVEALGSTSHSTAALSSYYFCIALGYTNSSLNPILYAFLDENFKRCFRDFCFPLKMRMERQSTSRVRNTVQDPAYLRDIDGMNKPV
Sequence of Sodium-dependent serotonin transporter (P31645 whole entry): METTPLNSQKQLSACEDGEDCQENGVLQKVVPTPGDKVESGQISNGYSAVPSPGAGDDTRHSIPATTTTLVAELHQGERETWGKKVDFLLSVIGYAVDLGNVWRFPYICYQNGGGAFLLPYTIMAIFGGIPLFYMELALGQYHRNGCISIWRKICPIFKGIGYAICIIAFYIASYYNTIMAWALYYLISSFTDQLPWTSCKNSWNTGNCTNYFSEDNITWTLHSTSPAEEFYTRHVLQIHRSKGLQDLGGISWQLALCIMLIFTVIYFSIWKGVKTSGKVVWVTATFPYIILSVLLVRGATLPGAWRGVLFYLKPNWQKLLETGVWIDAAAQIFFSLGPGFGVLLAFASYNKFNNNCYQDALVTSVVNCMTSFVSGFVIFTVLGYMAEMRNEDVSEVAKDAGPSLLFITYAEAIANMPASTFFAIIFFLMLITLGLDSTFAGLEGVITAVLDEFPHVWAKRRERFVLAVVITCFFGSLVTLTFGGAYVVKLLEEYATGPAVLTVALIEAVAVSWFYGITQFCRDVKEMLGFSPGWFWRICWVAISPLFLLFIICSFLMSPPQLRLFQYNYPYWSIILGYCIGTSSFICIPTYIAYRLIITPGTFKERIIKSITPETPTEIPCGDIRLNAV
Sequence of Histamine H1 receptor (P35367 whole entry): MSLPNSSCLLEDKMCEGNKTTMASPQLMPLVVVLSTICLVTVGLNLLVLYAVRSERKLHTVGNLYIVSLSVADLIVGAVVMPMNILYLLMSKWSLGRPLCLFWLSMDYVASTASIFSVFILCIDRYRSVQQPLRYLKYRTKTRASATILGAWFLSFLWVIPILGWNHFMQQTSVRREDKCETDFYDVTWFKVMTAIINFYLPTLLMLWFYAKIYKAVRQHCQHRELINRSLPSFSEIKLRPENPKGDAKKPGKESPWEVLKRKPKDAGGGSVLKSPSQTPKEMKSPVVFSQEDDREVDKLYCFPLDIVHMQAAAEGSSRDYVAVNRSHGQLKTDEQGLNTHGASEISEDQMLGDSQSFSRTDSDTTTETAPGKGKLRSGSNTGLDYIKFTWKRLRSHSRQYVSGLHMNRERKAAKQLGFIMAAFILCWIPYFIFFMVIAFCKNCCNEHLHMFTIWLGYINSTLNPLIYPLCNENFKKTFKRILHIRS
Sequence of 5-hydroxytryptamine receptor 2A (P28223 whole entry): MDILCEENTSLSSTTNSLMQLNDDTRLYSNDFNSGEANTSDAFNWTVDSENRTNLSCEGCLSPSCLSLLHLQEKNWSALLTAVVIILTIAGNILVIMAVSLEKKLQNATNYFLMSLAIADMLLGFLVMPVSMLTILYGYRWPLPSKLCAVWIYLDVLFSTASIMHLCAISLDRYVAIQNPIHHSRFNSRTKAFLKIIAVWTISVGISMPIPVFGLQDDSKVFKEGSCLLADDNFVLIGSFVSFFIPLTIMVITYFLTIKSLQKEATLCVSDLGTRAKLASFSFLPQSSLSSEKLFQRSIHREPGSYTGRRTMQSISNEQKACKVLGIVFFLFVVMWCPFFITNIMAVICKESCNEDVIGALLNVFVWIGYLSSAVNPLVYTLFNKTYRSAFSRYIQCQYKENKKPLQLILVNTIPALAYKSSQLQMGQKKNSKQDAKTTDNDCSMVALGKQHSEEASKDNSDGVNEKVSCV

Turning to `CCCN(CCC)C(=O)Cc1c(-c2ccc(Cl)cc2)nc2ccc(Cl)cn12` [ALPIDEM], the AC50 in assay [1] is greater than 30 µM; in assay [2], greater than 30 µM; in assay [3], 13 µM; on Histamine H1 receptor it was greater than 30 µM; in assay [4] it was greater than 30 µM; at Adenosine receptor A1, 14.4 µM.
Take `C/C=C/C/C=C/CCC(=O)[C@H]1O[C@H]1C(N)=O` [CERULENIN]: the AC50 (on Adenosine receptor A3; in assay [5]; at Adenosine receptor A1) was greater than 30 µM throughout.
In the case of `CC(C)(O)CNc1nc(Nc2ccnc(C(F)(F)F)c2)nc(-c2cccc(C(F)(F)F)n2)n1` [ENASIDENIB], the AC50 at Adenosine receptor A3 is 0.003 µM; in [5], greater than 30 µM; at Adenosine receptor A1 it was 1.29 µM.
Consider `CCc1nc(C(N)=O)c(Nc2ccc(N3CCC(N4CCN(C)CC4)CC3)c(OC)c2)nc1NC1CCOCC1` [GILTERITINIB], for which the AC50 (in assay [5]; at Adenosine receptor A1) was greater than 30 µM in each case.
Turning to `O=C(O)CO` [GLYCOLIC ACID], the AC50 on Adenosine receptor A1 is greater than 30 µM.
Regarding `O=C1/C(=C2\Nc3ccc(S(=O)(=O)O)cc3C2=O)Nc2ccc(S(=O)(=O)O)cc21` [INDIGOTINDISULFONATE], the AC50 is 0.995 µM at Adenosine receptor A3 and greater than 30 µM in assay [5].
Consider `OC[C@H]1O[C@@H](c2ccc(F)c(Cc3cc4ccccc4s3)c2)[C@H](O)[C@@H](O)[C@@H]1O` [IPRAGLIFLOZIN], for which the AC50 (at Adenosine receptor A3; in assay [5]) was greater than 30 µM in each case.
For the compound `CC(C)C[C@H](NC(=O)CNC(=O)c1cc(Cl)ccc1Cl)B(O)O` [IXAZOMIB], the AC50 (at Adenosine receptor A3; in assay [5]) was greater than 30 µM throughout.
Regarding `C=CCN1CC[C@]23CCCC[C@H]2[C@H]1Cc1ccc(O)cc13` [LEVALLORPHAN], the AC50 (at Adenosine receptor A3; in assay [5]) was greater than 30 µM in each case.
Consider `CN1CCCCC1CCN1c2ccccc2Sc2ccc([S+](C)[O-])cc21` (stereo unspecified) [MESORIDAZINE], for which the AC50 (on Adenosine receptor A3; in assay [5]) was greater than 30 µM throughout.
Regarding `C[C@@H]1C[C@H]2[C@@H]3CCC4=CC(=O)C=C[C@]4(C)[C@@]3(Cl)[C@@H](O)C[C@]2(C)[C@@]1(OC(=O)c1ccco1)C(=O)CCl` [MOMETASONE FUROATE], the AC50 is 1.64 µM at Adenosine receptor A3 and greater than 30 µM in assay [5].
With `Cc1ccccc1C(=O)Nc1ccc(C(=O)N2CCCC(N(C)C)c3ccccc32)cc1` (stereo unspecified) [MOZAVAPTAN], the AC50 on Adenosine receptor A3 was greater than 30 µM; in assay [5], 1.26 µM.
Taken in the same sequence, the figures for `O=C(O)c1cc(/N=N/c2ccc(O)c(C(=O)O)c2)ccc1O` [OLSALAZINE] were greater than 30 µM and greater than 30 µM.
On to `CCOC(=O)C1=C[C@@H](OC(CC)CC)[C@H](NC(C)=O)[C@@H](N)C1` [OSELTAMIVIR], for which the AC50 (at Adenosine receptor A3; in assay [5]) was greater than 30 µM in each case.
Regarding `Cc1onc(-c2ccccc2)c1C(=O)N[C@@H]1C(=O)N2[C@@H]1SC(C)(C)[C@@H]2C(=O)O` [OXACILLIN], the AC50 (at Adenosine receptor A3; in assay [5]) was greater than 30 µM each time.
As for `CCOC(=O)c1c(C)cc2c(CO)n[nH]c(=O)c2c1C` [OXAGRELATE], the AC50 in assay [5] is greater than 30 µM; at Adenosine receptor A1, 25.9 µM.
For the compound `CCn1cc(C(=O)O)c(=O)c2cc3c(cc21)OCO3` [OXOLINIC ACID], the AC50 (at Adenosine receptor A3; in [5]) was greater than 30 µM in each case.
As to `N#Cc1ccc2c(c1)N(CCCN1CCC(O)CC1)c1ccccc1S2` [PERICIAZINE], the AC50 on Adenosine receptor A3 and at Adenosine receptor A1 was greater than 30 µM each time.
Turning to `FC(F)(F)c1ccc(CNc2ccc(Cc3c[nH]c4ncc(Cl)cc34)cn2)cn1` [PEXIDARTINIB], the AC50 on Adenosine receptor A3 stood at 3.69 µM; in assay [5], 8 µM; at Adenosine receptor A1, 27.7 µM.
As to `Nc1ccc(C(=O)Oc2ccccc2)c(O)c1` [PHENYL AMINOSALICYLATE], the results for the AC50 (at Adenosine receptor A3; in [5]) were 18.4 µM and greater than 30 µM, respectively.
Regarding `CN1CCC(=C2c3ccccc3Sc3ccccc32)CC1` [PIMETHIXENE], the AC50 at Adenosine receptor A3 was 25.9 µM; in [5] it was 18.3 µM.
With `CN1C(C(=O)Nc2ccccn2)=C(O)c2ccccc2S1(=O)=O` [PIROXICAM], the AC50 in [1] was greater than 10 µM; in assay [2] it was greater than 30 µM; in assay [3], greater than 10 µM; in assay [4], greater than 30 µM; at Adenosine receptor A1, greater than 30 µM.
Consider `[H]/N=C(\N/C(=N/[H])Nc1ccc(Cl)cc1)NC(C)C` [PROGUANIL], for which the values for the AC50 (at Adenosine receptor A3; in [5]) were greater than 30 µM and 22.8 µM, respectively.
Taken in the same sequence, the figures for `CC(CN1CC(=O)NC(=O)C1)N1CC(=O)NC(=O)C1` (stereo unspecified) [RAZOXANE] were greater than 30 µM and greater than 30 µM.
As to `CC[C@@]1(O)C(=O)OCc2c1cc1n(c2=O)Cc2cc3c([N+](=O)[O-])cccc3nc2-1` [RUBITECAN], the AC50 (in assay [5]; at Adenosine receptor A1) was greater than 30 µM each time.
For `N[C@@H](CO)C(=O)O` [SERINE], the AC50 (at Adenosine receptor A3; in assay [5]) was greater than 30 µM in each case.
As to `OC[C@@H](O)[C@@H](O)[C@H](O)[C@@H](O)CO` [SORBITOL], at Adenosine receptor A1, the AC50 is greater than 30 µM.
Consider `OC[C@H]1O[C@@](CO)(O[C@H]2O[C@H](CO)[C@@H](O)[C@H](O)[C@H]2O)[C@@H](O)[C@@H]1O` [SUCROSE], for which the AC50 (in assay [1]; in assay [2]; in [6]; in assay [3]; at Histamine H1 receptor; in assay [4]) was greater than 30 µM each time. This compound also had an AC50 on Adenosine receptor A1 greater than 30 µM.
`CC(C)OC(=O)CCC/C=C\C[C@@H]1[C@@H](/C=C/C(F)(F)COc2ccccc2)[C@H](O)C[C@@H]1O` [TAFLUPROST]: the AC50 (at Adenosine receptor A3; in assay [5]) was greater than 30 µM each time.
As to `CC[C@H]1OC(=O)[C@H](C)C(=O)[C@H](C)[C@@H](O[C@@H]2O[C@H](C)C[C@H](N(C)C)[C@H]2O)[C@](C)(OC)C[C@@H](C)C(=O)[C@H](C)[C@H]2N(CCCCn3cnc(-c4cccnc4)c3)C(=O)O[C@]12C` [TELITHROMYCIN], the half-maximal activity concentration (AC50) (at Adenosine receptor A3; in assay [5]; on Adenosine receptor A1) was greater than 30 µM throughout.
For the compound `COc1cc2nc(N3CCN(C(=O)C4CCCO4)CC3)nc(N)c2cc1OC` (stereo unspecified) [TERAZOSIN], the AC50 in [1] is greater than 30 µM; in assay [2], greater than 30 µM; in assay [4], greater than 10 µM; at Adenosine receptor A1, greater than 30 µM.
In the case of `CC(=O)Oc1cc(C(F)(F)F)ccc1C(=O)O` [TRIFLUSAL], the half-maximal activity concentration (AC50) (on Adenosine receptor A3; in assay [5]; on Adenosine receptor A1) was greater than 30 µM each time.
On to `CCCC(CCC)C(=O)O` [VALPROIC ACID], for which the AC50 in [1] is greater than 30 µM; in assay [2], 11 µM; in [3] it was greater than 10 µM; in assay [4] it was greater than 10 µM; on Adenosine receptor A1, greater than 30 µM.
